# From patent US9212210B2, “Akt activity specifically inhibiting polypeptide” (Japan Science and Technology Agency, priority 2003, dated 2015)
# Columns and labels:
# AKT kinase (unactivated) = target: T1, AKT kinase (unactivated) (Homo sapiens, UniProt P31749); assay: Lipid-protein pull down assay with PIP Beads (PI (3,4,5) P3); type: binding; settings: for binding of PIP Beads (PI (3,4,5) P3) to AKT: 1-400 μM peptide, 50 ng AKT kinase, 2 hours at 4° C., western blotting
# T1 construct: purchased Upstate Biotechnology #14-279
# Procedure: Lipid-protein pull down assay was performed for 10/24 peptide of TCL1.
# Lipid-protein pull down assay was performed by using PIP Beads (PI (3,4,5) P3 Echelon Bioscience Incorporated). 10/24 NH2-AVTDHPDRLWAWEKF-COOH (SEQ ID NO: 1), and βC NH2-EKQHAWLPLTIE-COOH (SEQ ID NO: 22) as a control, were used. After treatment for 2 hours at 4° C. by using 50 ng of AKT kinase (unactivated, Upstate Biotechnology, #14-279), 25 μl of PIP Beads (PI (3,4,5) P3 Echelon Bioscience Incorporated) was added, then washed with fluid containing (10 mM Hepes, pH7.4, 0.25% NP-40, 140 mM NaCl), and western blotting was performed by using Akt antibody (Cell Signaling) (FIG. 8). […] Thus, this is considered to be the inhibition mechanism for Akt activation.
# Akt2 [1] = target: T2, Akt2 (Homo sapiens, UniProt P31751); assay: Yeast two-hybrid screening, β-Gal lifting assay and quantitative liquid β-Gal assay; type: cell-based; parameters: expressed in transfected cells; host or cells: yeast Y190 cells (Clontech), lithium acetate method; key to β-Gal lifting assay category of interaction with Akt2: 3 h-positive [++]; 8 h-positive [+]; 24 h-negative [−]; settings: yeast Y190 cells; for binding to Akt in β-Gal lifting assay and quantitative liquid β-Gal assay: site-directed TCL1 mutants
# Procedure: Y190 cells (Clontech), by using lithium acetate method; and human Akt2 (Akt2/PAS2-1) and TCL1 random library, in accordance with the previous report (Mol. Cell 6:395-407; Proc. Natl. Acad. Sci. USA 94:11534-11539); were expressed in yeast. In the presence of 3-amino-1,2,4-triazole (SIGMA), around […] clones from cDNA library were screened. β-galactosidase (β-Gal) activity in His+ colony was measured by using filter-lift assay. Yeast clones were classified into clone categories: 3 h-positive [++], 8 h-positive [+], and 24 h-negative [−] by the intensity of β-Gal. Ten clones were selected from the each category for sequencing of the nucleotide.
# Y190 cells (Clontech) were expressed in yeast together with TCL1 of wild-type, D16G, K30M, Q46R, 174V, or M106V by using Akt2/PAS2-1, with the use of pGAD424 (Clontech) vector. TCL1 mutant was produced by using PCR-based site-directed mutagenesis and/or Quikchange kit (Stratagene). Liquid β-Gal assay was performed for quantitative determination of binding intensity by using ONPG (O-nitrophenyl-β-D-galactoppyranoside; Sigma) (Mol. Cell 6:395-407). The indicated values were determined by western blotting analysis (GAL4 activation domain antibody [Ab]: Clontech), and normalized by expressing transformant in each yeast.
# Next, a yeast two-hybrid screening was performed to examine the interaction of each clone with Akt2. Yeast clones were classified into three categories based on the blue-color intensity expressed in β-Gal lifting assay (β-Gal positive [++] at 3 h, β-Gal positive [+] at 8 h, and negative [−]). Nucleotide sequences of the 10 clones in each category were determined.
# Akt kinase [2] = target: Akt kinase (Homo sapiens, UniProt P31749); assay: In vitro kinase assay of TCL1-induced Akt activation; type: biochemical; settings: for Akt kinase activity: dose escalation
# Procedure: This was predominantly correlated with Akt Ser-473 phosphorylation levels. […] D16G TCL1 was evaluated by Akt kinase activity.
# [3] = system: AKT overexpressed in 293 cells; assay: Inhibition of activation and membrane translocation of AKT in 293 cells (confocal microscope); type: cell-based, human; settings: PDGF-AB 10 minutes, compared with control peptides
# Procedure: Inhibition effect for the activation and membrane translocation of AKT of 10/24 peptide were tested with the use of 293 cells (ATCC).
# […] of AKT was overexpressed in 293 cells (ATCC) with the use of FuGENE6 (Roche Diagnostics). Sixteen hours later the serum was eliminated, and the cells were stimulated with PDGF-AB (Sigma, #3226) for 10 minutes. The cells were fixed with 4% paraformaldehyde, stained with FITC-conjugated anti-HA antibody (12CA5, MBL) or phospho-Ser 473 antibody (587-F11, Cell Signaling), and observed under the confocal microscope (Nikon).
# As shown in the FIG. 10, in the 10/24 treated cells (g-i), the inhibition of the membrane translocation and activation of AKT was identified compared with the control peptides (a-f) (around the cells glowed green or yellow as shown in d or f, while this effect was inhibited in the 10/24 peptide as shown in […] or i. See the figure). That is, from the results of the experiment, it was identified that the 10/24 peptide inhibits the activation at the same time as the translocating of AKT to the membrane in cells. AKT essentially translocates to the cell surface where it is activated, but in the 10/24 peptide treated cells, it was identified that the translocation to membrane and activation of AKT was inhibited.
# Recombinant Akt protein = assay: In vitro Akt kinase assay with GSK as substrate; type: biochemical; settings: 200 μM peptide, reacted 2 hours, phosphorylation 4 minutes at 30° C., western blotting
# Procedure: With the use of the GSK as substrate Akt kinase assay was performed, and inhibition test for Akt activation with 10/24 peptide was performed.
# In vitro Akt kinase assay was performed by using kit (Cell Signaling, #9840). Recombinant Akt protein extracted from mammalian cells was mixed with 200 μM concentrations of peptide, and reacted for 2 hours. Phosphorylation was performed for 4 minutes at 30° C. After analyzing the reaction mixture on SDS gels, GSK phosphorylation was determined by western blotting.
# [4] = system: Mouse QrSP-11 fibrosarcoma cells transplanted to C57BL/6 mouse; assay: In vivo anti-tumor effect on transplanted tumor cells; settings: injected directly into tumor, 2 μM 3 times a week per mouse, versus control peptide
# Procedure: In vivo anti-tumor effect by 10/24 peptide with the use of the transplanted tumor cells was examined.
# Mouse QrSP-11 fibrosarcoma cells was transplanted to abdominal wall of C57BL/6 mouse, and examined the inhibition ? effect on tumor growth by peptide. 10/24 peptide or control peptide was injected directly into tumor cells (2 μM was administered 3 times a week for each mouse, shown by arrows in the figure), the tumor diameters were measured and the volumes were calculated.
# T4 cell lines = assay: Cell growth test by MTT (WST-8 reagent) assay; type: cell-based, human; settings: T4 cell lines without stimulation, 0-50 μM, 48 hours, WST-8, absorbance at 450 nm
# Procedure: Cell growth test was performed by using MTT assay. That is, in experiments of cell growth by using WST-8 reagent [2-(2-methoxy-4-nitrophenyl)-3-(4-nitrophenyl)-5-(2,4-disulfophenyl)-2H-tetrazolium, monosodium salt]
# In this method, 10/24 peptide was pre-treated at 0-50 μM concentration in cell growth test by using T4 cell lines without stimulation, 48 hours later the growth potency was measured by using WST-8 reagent assay, the absorbance at 450 nm was measured by ELISA using a microplate reader (Model 550; BioRad, Tokyo, Japan).
# Akt1 = assay: Co-immunoprecipitation binding test with Akt subtype Akt1; settings: 293 cell lysate, peptide at 400 μM, anti Flag M2 immunoprecipitation, western blotting
# Procedure: (§1) Binding test between 10/24 peptide and Akt subtype molecule: Akt1, Akt2, or Akt3, was performed by using co-immunoprecipitation assay.
# (§2) The cell lysate overexpressed Akt kinase in 293 cells (ATCC) i.e., Akt1, Akt2 or Akt3 in pCMV6 was expressed in 293 cells (ATCC) by using calcium phosphate method, and the overexpressed cells were harvested, lysed, and pre-treated with Protein G/A agarose mixture (50% v/v, ProG/A, Pharmacia). Akt or a control peptide (βC) was added to the cell lysate at 400 μM, inoculated with ProG/A for 3 hours at 4° C., and was added anti Flag M2 antibody (Sigma). The resultant immune precipitant was washed, and then were identified the binding to Akt kinase by western blotting (anti-HA antibody, 3F10, Boehringer Mannheim). As shown in the figure, the 10/24 peptide bound to any of the three subtypes of molecules, Akt1, Akt2, and Akt3.
# [5] = system: Mouse QrSP-11 fibrosarcoma tumors of example 8; assay: Histological examination of peptide treated mouse tumor; type: in vivo
# Text: Experimental mouse tumors of example 8 were harvested on the day 9, and histologically examined by macroscopic appearance, hematoxylin-eosin (H&E) staining (an observing method for conditions of cell nucleus and the like), TUNEL (Tdt-mediated dUTP nick end labeling, #MK500, Takara) immunostaining (a histologically identifying method for the way of the atypical death of carcinoma i.e., apoptosis), and phospho Akt (Ser 473) monoclonal antibody (a method for determining 587F11, Cell Signaling, phosphorylation of AKT kinase, and observing the activation).
# [6] = system: Akt in mouse QrSP-11 fibrosarcoma cells; assay: Inhibition of Akt phosphorylation activation in PDGF-stimulated QrSP-11 cells (western blotting); type: cell-based; settings: 50 mM peptide for 16 hours, PDGF stimulation
# Procedure: Inhibition effect on Akt activation of AKT phosphorylation (serine 473 residue, threonine 308 residue) of 10/24 peptide and control peptide in mouse QrSP-11 fibrosarcoma cells were examined.
# QrSP-11 cells were mixed with 50 mM concentrations of peptide for 16 hours. Then the mixture was stimulated with PDGF (PDGF-AB, Sigma, 3226). The cells were lysed in the presence of phosphatase inhibitor, analyzed on SDS gels, and western blotting was performed by ECL (Amersham) with the use of various antibodies (Cell Signaling; anti-Akt #9272, anti-pThr 308 #9275L, and anti-pSer 473 #9271L). As shown in the figure, in the 10/24 peptide treated cells, phosphorylations of both serine 473 and threonine 308 were inhibited as shown at the right in the figure. That is, phosphorylation inhibition caused by 10/24 peptide was indicated by diluting the black bands at the right compared to the second and forth rows from the left in the figure.
# Akt3 = target: T3, Akt3 (Homo sapiens, UniProt Q9Y243); assay: Co-immunoprecipitation binding test with Akt subtype Akt3; settings: 293 cell lysate, peptide at 400 μM, anti Flag M2 immunoprecipitation, western blotting
# T3 construct: expressed in transfected cells; host or cells: 293 cells (ATCC), calcium phosphate transfection, pCMV6 vector
# Procedure: as §1, §2
# Akt kinase [7] = assay: Binding test by co-immunoprecipitation assay; settings: lysate of human 293 cells overexpressing AKT kinase, incubated around 2 hours, western blotting
# Procedure: In this method, AKT kinase was overexpressed in human 293 cells, and the harvested cell lysates was incubated with 10/24 peptide (NH2-AVTDHPDRLWAWEKF-COOH) (SEQ ID NO: 1) for around 2 hours. Further, the treated cell lysates were added agarose beads bound to the specific antibody against an epitope that was fused with Akt, and co-incubated for 2-3 hours. Then, molecules adhered in the cell lysates were immunoprecipitated with agarose beads bound to this antibody, and examined the binding to Akt kinase by using western blotting with specific antibody.
# [8] = system: human T cell leukemia cells (T4); assay: Apoptosis of T4 cells by propidium iodide staining and FACS; type: cell-based
# Procedure: The effect on apoptosis of 10/24 peptide was examined with the use of human T cell leukemia cells (T4).
# 10/24 peptide (NH2-AVTDHPDRLWAWEKF-COOH) (SEQ ID NO: 1) was pre-treated at 0-30 μM concentrations with the use of T4 cell lines without stimulation, 48 hours later stained with propidium iodide, and the apoptosis was determined by FACS (Beckton Dickinson). Further, to identify the AKT dependency of the anti-tumor effect, myr-AKT (constitutively activated AKT) was overexpressed.
# Akt2 [9] = target: T2, Akt2; assay: Co-immunoprecipitation binding test with Akt subtype Akt2; parameters: expressed in transfected cells; host or cells: 293 cells (ATCC), calcium phosphate transfection, pCMV6 vector; settings: 293 cell lysate, peptide at 400 μM, anti Flag M2 immunoprecipitation, western blotting
# Procedure: as §1, §2
# T2 sequence (P31751 whole entry): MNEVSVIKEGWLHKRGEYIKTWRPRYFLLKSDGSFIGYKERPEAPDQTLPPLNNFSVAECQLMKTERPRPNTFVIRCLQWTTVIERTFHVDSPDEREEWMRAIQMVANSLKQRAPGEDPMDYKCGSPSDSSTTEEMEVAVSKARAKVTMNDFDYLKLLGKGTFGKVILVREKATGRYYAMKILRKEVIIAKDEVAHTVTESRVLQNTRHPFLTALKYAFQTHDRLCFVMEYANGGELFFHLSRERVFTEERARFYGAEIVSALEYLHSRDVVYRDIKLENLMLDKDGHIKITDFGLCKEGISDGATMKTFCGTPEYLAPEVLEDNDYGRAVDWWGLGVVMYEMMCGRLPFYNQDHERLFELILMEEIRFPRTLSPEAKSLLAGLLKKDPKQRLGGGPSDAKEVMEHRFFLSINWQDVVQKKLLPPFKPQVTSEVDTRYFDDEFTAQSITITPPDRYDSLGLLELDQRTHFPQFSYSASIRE
# Sequence of Akt kinase (Homo sapiens, UniProt P31749) (P31749 whole entry): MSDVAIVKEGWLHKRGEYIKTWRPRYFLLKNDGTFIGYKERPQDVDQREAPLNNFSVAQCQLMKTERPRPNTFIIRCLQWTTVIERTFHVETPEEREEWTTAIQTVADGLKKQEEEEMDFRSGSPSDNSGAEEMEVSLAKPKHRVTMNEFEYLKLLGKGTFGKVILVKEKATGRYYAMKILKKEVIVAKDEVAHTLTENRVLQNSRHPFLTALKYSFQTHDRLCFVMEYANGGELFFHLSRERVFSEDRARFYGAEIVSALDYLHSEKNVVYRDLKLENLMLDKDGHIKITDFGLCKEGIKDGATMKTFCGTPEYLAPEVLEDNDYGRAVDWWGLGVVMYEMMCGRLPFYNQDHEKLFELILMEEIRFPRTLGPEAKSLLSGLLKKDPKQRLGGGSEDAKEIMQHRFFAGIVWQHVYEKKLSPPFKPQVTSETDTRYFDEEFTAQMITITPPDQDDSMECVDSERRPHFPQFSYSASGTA
# T1 sequence (P31749 whole entry): as above
# T3 sequence (Q9Y243 whole entry, species assumed): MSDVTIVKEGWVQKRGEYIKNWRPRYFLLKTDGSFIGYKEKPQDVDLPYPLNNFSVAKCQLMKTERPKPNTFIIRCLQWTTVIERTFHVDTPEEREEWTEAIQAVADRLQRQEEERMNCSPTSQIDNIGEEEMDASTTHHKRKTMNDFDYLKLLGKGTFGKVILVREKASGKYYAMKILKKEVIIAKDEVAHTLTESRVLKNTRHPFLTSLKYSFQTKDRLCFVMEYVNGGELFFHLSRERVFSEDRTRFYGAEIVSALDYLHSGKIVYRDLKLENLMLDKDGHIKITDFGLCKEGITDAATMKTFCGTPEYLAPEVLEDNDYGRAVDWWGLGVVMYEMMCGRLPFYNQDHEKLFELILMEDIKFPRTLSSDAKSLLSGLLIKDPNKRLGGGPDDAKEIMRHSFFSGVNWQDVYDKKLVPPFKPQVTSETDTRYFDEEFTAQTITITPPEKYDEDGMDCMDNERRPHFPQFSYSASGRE
substance,measurement,setting,value
"NH2-EKQHAWLPLTIE-COOH (H-EKQHAWLPLTIE-OH; listed as Homo sapiens) [βC, reference compound]","binding of PIP Beads (PI (3,4,5) P3) to AKT",AKT kinase (unactivated),did not inhibit at all
"Wild-type TCL1: human TCL1 protooncogene protein, co-activator of Akt",β-Gal lifting assay category of interaction with Akt2,Akt2 [1]; blue-color intensity,++
same,Akt kinase activity,Akt kinase [2],increase in Akt kinase activity
I74V: amino acid-substituted mutant form of TCL1 (I74V),binding to Akt in β-Gal lifting assay and quantitative liquid β-Gal assay,Akt2 [1],dramatic decrease
D16G TCL1: amino acid-substituted mutant form of TCL1 (D16G),binding to Akt in β-Gal lifting assay and quantitative liquid β-Gal assay,Akt2 [1],dramatic decrease
same,GSK-3α phosphorylation and Akt Ser-473 phosphorylation,Akt kinase [2],did not affect
same,Akt kinase activity,Akt kinase [2],did not affect the Akt kinase activity
"NH2-AVTDHPDRLWAWEKF-COOH (H-AVTDHPDRLWAWEKF-OH; listed as Homo sapiens) [10/24 peptide, amino acid residue 10-24 of human TCL1]","mode of inhibition of the binding of Phosphoinositide (PI (3,4,5) P3) to Akt kinase",AKT kinase (unactivated),competitively inhibits
same,"binding of PIP Beads (PI (3,4,5) P3) to AKT",AKT kinase (unactivated),inhibited in a dose-dependent manner
same,membrane translocation of AKT,[3]; anti-HA staining,inhibited
same,activation of AKT (phospho-Ser 473 staining),[3],inhibited
same,phosphorylation potency of Akt for GSK peptide (Akt kinase activity),Recombinant Akt protein,effectively inhibited
same,tumor growth (tumor volume),[4],tumor growth was effectively inhibited
same,cell growth associated with AKT activation,T4 cell lines,specifically inhibits cell growth
same,binding to Akt1,Akt1,bound
same,Akt activation (phospho Akt Ser 473 staining),[5]; tumors harvested on day 9,inhibition of Akt activation
same,apoptosis by H&E staining,[5]; tumors harvested on day 9,increased apoptosis
same,cell apoptosis by TUNEL staining,[5]; tumors harvested on day 9,increased cell apoptosis
same,tumor size by macroscopic appearance,"[5]; tumors harvested on day 9, compared to the control",reduction in tumor size was clearly observed
same,phosphorylation of Akt serine 473,[6],inhibited
same,phosphorylation of Akt threonine 308,[6],inhibited
same,binding to Akt3,Akt3,bound
same,binding to Akt kinase,Akt kinase [7],specifically binds
same,apoptosis,"[8]; T4 cell lines without stimulation, 0-30 μM, 48 hours, compared with control peptide",enhance apoptosis
same,apoptosis with myr-AKT (constitutively activated AKT) overexpression,"[8]; T4 cells, AKT dependency of the effect",apoptosis was inhibited
same,binding to Akt2,Akt2 [9],bound
